Entries after “also recorded” stand apart in the source; their conditions may differ.
Legend:
[1] = mouse, in vivo
From the text: (§1) Animals were weighed daily for the first five days of the study and then twice weekly.
(§2) Animals were monitored for adverse treatment-related effects by frequent observation and body-weight (BW) measurements (data not shown).

[2] = system: HT-29 human colon carcinoma xenografts; assay: HT-29 human colon carcinoma xenografts in athymic nude mice: tumor growth delay; type: in vivo
From the text: Administration of the TPO Mimetic Peptide Compound One Hour After Administration of Carboplatin. Effect on activity and toxicity of carboplatin against HT-29 human colon carcinoma xenografts established in athymic nude mice.
Five groups (n=10) of female athymic nude mice (Harlan) bearing established (˜100 mm^3) HT-29 human colon carcinomas on Day 1. Groups 6-9 (n=20) were included for blood sampling and received the same treatment as Groups 1-4, respectively. Treatment effects on the growth of tumors were evaluated by tumor growth delay (TGD), which is the difference between median time to endpoint (TTE) tumor size in a treatment group compared to a control group. The effect of these treatments on platelet and erythrocyte precursors was determined from CBC analysis and reticulocyte counts of blood samples taken on Days 10, 13, 21 and 24.
Xenografts were initiated from HT-29 human colon carcinoma xenografts maintained in athymic nude mice. HT-29 tumor fragments (1 mm^3) were implanted subcutaneously into the right flank of each test mouse, and tumor growth was monitored. On Day 1 of the study, the animals were pair-matched into five groups (Groups 1-5) for evaluation of efficacy and four groups for sampling (Groups 6-9). Groups 1-5 each consisted of ten animals with tumor sizes ranging from 75-126 mm^3 and group mean tumor sizes of 99 mm^3. Groups 6-9 each consisted of twenty animals with tumor sizes ranging from 40-221 mm^3 and group mean tumor sizes of 84 mm^3. Tumor weight was estimated with the assumption that 1 mg is equivalent to 1 mm^3 of tumor volume. Volume was calculated using the formula:
Group 1 mice (n=10) were untreated tumor growth controls. Group 2 mice (n=10) received 60 mg/kg carboplatin administered intraperitoneally (i.p.) on Days 1, 2, 12, and 13. Group 3 mice (n=10) received 0.2 mg/kg of the TPO mimetic peptide compound administered intravenously (i.v.) via tail vein on Days 2 and 13. Groups 4 and 5 received the combination of carboplatin (60 mg/kg i.p. on Days 1, 2, 12, and 13) and 0.2 mg/kg of the TPO mimetic peptide compound on Days 2, 13 and Days 2, 13, 23, respectively, administered intravenously (i.v.) one hour after carboplatin dosing. Groups 6-9 (n=20 each) were included for blood sampling and received the same treatments as Groups 1-4, respectively. For all groups, each dose of drug was given in a volume of 0.2 mL per 20 g of body weight (10 mL/kg), and was scaled to the body weight of each animal.
Tumors were measured twice each week using calipers. Each animal was euthanized when its tumor reached the predetermined endpoint size of 1000 mm^3, or on the final day of the study (Day 62), whichever came first. The time to endpoint (TTE) for each mouse was calculated from the following equation: […]
where b is the intercept and m is the slope of the line obtained by linear regression of a log-transformed tumor growth data set. The data set was comprised of the first observation that exceeded the study endpoint volume and the three consecutive observations that immediately preceded the attainment of the endpoint volume.
Treatment outcome was determined from tumor growth delay (TGD), which is defined as the increase in the median time to endpoint (TTE) in a treatment group compared to the control group:
where: • T=median TTE for a treatment group, • C=median TTE for the control group (Group 1)
Treatment may cause partial regression (PR) or complete regression (CR) of the tumor in an animal. In a PR response, the tumor volume is 50% or less of its Day 1 volume for three consecutive measurements during the course of the study, and equal to or greater than 13.5 mm^3 for one or more of these three measurements. In a CR response, the tumor volume is less than 13.5 mm^3 for three consecutive measurements during the course of the study. An animal with a CR response at the termination of a study is additionally classified as a long-term tumor-free survivor (LTTFS). […]

hemoglobin = assay: Multiple dose study in cancer subjects receiving platinum-based chemotherapy: hemoglobin; type: in vivo, human
[3] = toxicity / side effects in HT-29 tumor-bearing mice
From the text: as §1, §2

platelet count [4] = assay: Single dose study in healthy subjects: platelets, megakaryocyte ploidy, progenitor cells; type: in vivo, human
From the text: See, e.g., U.S. patent application Ser. No. 11/354,065, filed Feb. 14, 2006, the entire contents of which are incorporated herein by reference.

platelet count [5] = assay: platelet count in the rat after a single i.v. dose; type: in vivo; settings: single i.v. dose 30 to 300 μg/kg
Experimental: The TPO mimetic peptide compound has an estimated EC50 of approximately 5 pM (0.2 ng/mL) in a human TPO (huTPO) receptor assay in vitro and stimulates megakaryocyte lineage specific growth and differentiation in vivo.

[6] = addition of up to 3 cycles to carboplatin therapy

Methoxypolyethyleneglycol20000-propionyl-L-Isoleucyl-L-Glutamyl-Glycyl-L-Prolyl-L-Threonyl-L-Leucyl-L-Arginyl-L-Glutaminyl-L-2-Naphthylalanyl-L-Leucyl-L-Alanyl-L-Alanyl-L-Arginyl-Sarcosyl-Ne-(methoxypolyethyleneglycol20000-propionyl-L-Isoleucyl-L-Glutamyl-Glycyl-L-Prolyl-L-Threonyl-L-Leucyl-L-Arginyl-L-Glutaminyl-L-2-Naphthylalanyl-L-Leucyl-L-Alanyl-L-Alanyl-L-Arginyl-Sarcosyl-)-Lysinamide [TPO mimetic peptide compound]
treatment-related (TR) deaths [1]: no treatment-related (TR) deaths
TGD (tumor growth delay) ([2]; Groups 2-4, relative to untreated Group 1, carboplatin 60 mg/kg i.p. Days 1, 2, 12, 13, TPO mimetic peptide compound 0.2 mg/kg i.v. Days 2, 13): 8.1 days
% Tumor Growth Delay ([2]; HT-29 xenografts, athymic nude mice, n=10, carboplatin 60 mg/kg i.p. Days 1, 2, 12, 13, TPO mimetic peptide compound 0.2 mg/kg i.v. Days 2, 13, Groups 2-4, vs untreated Group 1): 33%
Median TTE ([2]; HT-29 xenografts, athymic nude mice, n=10, carboplatin 60 mg/kg i.p. Days 1, 2, 12, 13, TPO mimetic peptide compound 0.2 mg/kg i.v. Days 2, 13, Groups 2-4, endpoint 1000 mm^3): 32.9 days
effect on tumor growth ([2]; TPO mimetic peptide compound administration alone): did not enhance tumor growth
impact on tumor growth delay [2, 6]: no negative impact on tumor growth delay
survival compared with carboplatin treatment alone [2, 6]: small increase in survival; also recorded: small advantage in survival
hemoglobin as compared with placebo (hemoglobin; 2.25 and 3 μg/kg doses): trends for preservation of hemoglobin
Change From Baseline in Hemoglobin, Diff of LS Mean (SE) vs Placebo (hemoglobin; Day 42, 1.5 μg/kg): 0.54 (0.63)
Change From Baseline in Hemoglobin, Diff of LS Mean (SE) vs Placebo (hemoglobin; Day 42, 3.0 μg/kg): 1.00 (0.61)
Change From Baseline in Hemoglobin, LS Mean (SE) (hemoglobin; Day 42, 3.0 μg/kg): −1.16 (0.47)
Change From Baseline in Hemoglobin, Diff of LS Mean (SE) vs Placebo (hemoglobin; Day 63, 1.5 μg/kg): −0.75 (0.90)
Change From Baseline in Hemoglobin, LS Mean (SE) (hemoglobin; Day 63, 1.5 μg/kg): −2.98 (0.70)
Change From Baseline in Hemoglobin, Diff of LS Mean (SE) vs Placebo (hemoglobin; Day 63, 2.25 μg/kg): 0.68 (0.83)
Change From Baseline in Hemoglobin, LS Mean (SE) (hemoglobin; Day 63, 2.25 μg/kg): −1.55 (0.61)
Change From Baseline in Hemoglobin, Diff of LS Mean (SE) vs Placebo (hemoglobin; Day 63, 3.0 μg/kg): 0.79 (0.83)
Change From Baseline in Hemoglobin, LS Mean (SE) (hemoglobin; Day 63, 3.0 μg/kg): −1.44 (0.61)
Change From Baseline in Hemoglobin, Diff of LS Mean (SE) vs Placebo (hemoglobin; Day 84, 1.5 μg/kg): 0.05 (0.73)
Change From Baseline in Hemoglobin, LS Mean (SE) (hemoglobin; Day 84, 1.5 μg/kg): −1.88 (0.55)
Change From Baseline in Hemoglobin, Diff of LS Mean (SE) vs Placebo (hemoglobin; Day 84, 2.25 μg/kg): 0.37 (0.77)
Change From Baseline in Hemoglobin, LS Mean (SE) (hemoglobin; Day 84, 2.25 μg/kg): −1.56 (0.61)
Change From Baseline in Hemoglobin, Diff of LS Mean (SE) vs Placebo (hemoglobin; Day 84, 3.0 μg/kg): 1.57 (0.77)
Change From Baseline in Hemoglobin, LS Mean (SE) (hemoglobin; Day 84, 3.0 μg/kg): −0.36 (0.61)
change in hemoglobin levels from baseline to the end of Cycle 2 (Day 42) and beyond (hemoglobin; preliminary evaluation): dose-related trend for preservation of hemoglobin
large spleens in necropsied animals ([3]; Group 3): ⅖
mean BW losses ([3]; monotherapy (Group 3)): no mean BW losses
tolerability ([3]; monotherapy (Group 3), 0.2 mg/kg i.v. Days 2, 13): well tolerated
mean platelet count (platelet count [4]; healthy male subjects, single i.v. administration): dose-dependently increased; also recorded: dose dependent, nonlinear increase
elevated platelet counts, increase from baseline (platelet count [4]; healthy subjects, 3.0 μg/kg dose): ≥ 3 fold
mean number of CD62P+ platelets (platelet count [4]; healthy subjects, 2 highest doses): appeared to increase
mean megakaryocyte ploidy (platelet count [4]; healthy subjects, doses of 1.5 μg/kg and above): increased compared with placebo
mean numbers of hematopoietic progenitor cells (BFU-E and peripheral CD34+ cells) (platelet count [4]; healthy subjects, highest dose): increased compared with placebo; also recorded: increased mean numbers of hematopoietic progenitor cells
platelet count (platelet count [5]): increased platelet count
time at which platelet count returned to baseline (platelet count [5]): 12 days
time at which the platelet count increase was maximal (platelet count [5]): 6 days
